Experimental data published in the supplement of paper PMC10307832.

Tests used:
Assay in all cases: relative viability (nuclei count vs DMSO), 5 days (fraction); higher = more cells survive
SW 1573 = test system: SW 1573
Method in brief: (§1)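 Values are medians from duplicate plates. Each reflects relative viability, defined as the nuclei count of treated wells over that of vehicle wells. Lung cancer cell lines in 1536-well plates were pin-tool dosed one day after seeding with one drug alone or with a fixed anchor-drug dose plus five library-drug doses (not always all listed) in √10 steps, then fixed, stained and imaged at 4× after 5 days.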

NCI-H23 = test system: NCI-H23
Method in brief: as §1

LCLC-103H = test system: LCLC-103H
Method in brief: as §1

LU99A = test system: LU99A
Method in brief: as §1

A-427 = test system: A-427
Method in brief: as §1

PC-3 [JPC-3] = test system: PC-3 [JPC-3]
Method in brief: as §1

NCI-H1793 = test system: NCI-H1793
Method in brief: as §1

NCI-H727 = test system: NCI-H727
Method in brief: as §1

NCI-H1650 = test system: NCI-H1650
Method in brief: as §1

H3255 = test system: H3255
Method in brief: as §1

201T = test system: 201T
Method in brief: as §1

LK-2 = test system: LK-2
Method in brief: as §1

PC-14 = test system: PC-14
Method in brief: as §1

NCI-H838 = test system: NCI-H838
Method in brief: as §1

HCC-44 = test system: HCC-44
Method in brief: as §1

NCI-H2347 = test system: NCI-H2347
Method in brief: as §1

COR-L23 = test system: COR-L23
Method in brief: as §1

NCI-H1944 = test system: NCI-H1944
Method in brief: as §1

NCI-H460 = test system: NCI-H460
Method in brief: as §1

NCI-H650 = test system: NCI-H650
Method in brief: as §1

SW 900 = test system: SW 900
Method in brief: as §1

LCLC-97TM1 = test system: LCLC-97TM1
Method in brief: as §1

NCI-H1563 = test system: NCI-H1563
Method in brief: as §1

NC(=O)Nc1cc(-c2cccc(F)c2)sc1C(=O)N[C@H]1CCCNC1 [AZD7762] + N=C(N)NC(=N)NCCc1ccccc1 [Phenformin] (partner 250 µM)
relative viability (SW 1573; first compound 0.01 µM): 0.374
relative viability (SW 1573; first compound 0.03162 µM): 0.384
relative viability (SW 1573; first compound 0.1 µM): 0.346
relative viability (SW 1573; first compound 0.3162 µM): 0.297
relative viability (SW 1573; first compound 1 µM): 0.164
relative viability (NCI-H23; first compound 0.01 µM): 0.813
relative viability (NCI-H23; first compound 0.03162 µM): 0.831
relative viability (NCI-H23; first compound 0.1 µM): 0.808
relative viability (NCI-H23; first compound 0.3162 µM): 0.654
relative viability (NCI-H23; first compound 1 µM): 0.434
relative viability (LCLC-103H; first compound 0.01 µM): 0.376
relative viability (LCLC-103H; first compound 0.03162 µM): 0.35
relative viability (LCLC-103H; first compound 0.1 µM): 0.352
relative viability (LCLC-103H; first compound 0.3162 µM): 0.312
relative viability (LCLC-103H; first compound 1 µM): 0.339
relative viability (LU99A; first compound 0.01 µM): 0.777
relative viability (LU99A; first compound 0.03162 µM): 0.934
relative viability (LU99A; first compound 0.1 µM): 0.868
relative viability (LU99A; first compound 0.3162 µM): 0.795
relative viability (LU99A; first compound 1 µM): 0.512
relative viability (A-427; first compound 0.01 µM): 0.255
relative viability (A-427; first compound 0.03162 µM): 0.346
relative viability (A-427; first compound 0.1 µM): 0.292
relative viability (A-427; first compound 0.3162 µM): 0.304
relative viability (A-427; first compound 1 µM): 0.197
relative viability (PC-3 [JPC-3]; first compound 0.01 µM): 0.485
relative viability (PC-3 [JPC-3]; first compound 0.03162 µM): 0.503
relative viability (PC-3 [JPC-3]; first compound 0.1 µM): 0.449
relative viability (PC-3 [JPC-3]; first compound 0.3162 µM): 0.484
relative viability (PC-3 [JPC-3]; first compound 1 µM): 0.405
relative viability (NCI-H1793; first compound 0.01 µM): 0.428
relative viability (NCI-H1793; first compound 0.03162 µM): 0.416
relative viability (NCI-H1793; first compound 0.1 µM): 0.278
relative viability (NCI-H1793; first compound 0.3162 µM): 0.351
relative viability (NCI-H1793; first compound 1 µM): 0.279
relative viability (NCI-H727; first compound 0.01 µM): 0.465
relative viability (NCI-H727; first compound 0.03162 µM): 0.548
relative viability (NCI-H727; first compound 0.1 µM): 0.439
relative viability (NCI-H727; first compound 0.3162 µM): 0.398
relative viability (NCI-H727; first compound 1 µM): 0.262
relative viability (NCI-H1650; first compound 0.01 µM): 0.51
relative viability (NCI-H1650; first compound 0.03162 µM): 0.48
relative viability (NCI-H1650; first compound 0.1 µM): 0.439
relative viability (NCI-H1650; first compound 0.3162 µM): 0.252
relative viability (NCI-H1650; first compound 1 µM): 0.18
relative viability (H3255; first compound 0.01 µM): 0.337
relative viability (H3255; first compound 0.03162 µM): 0.357
relative viability (H3255; first compound 0.1 µM): 0.402
relative viability (H3255; first compound 0.3162 µM): 0.378
relative viability (H3255; first compound 1 µM): 0.374
relative viability (201T; first compound 0.01 µM): 0.465
relative viability (201T; first compound 0.03162 µM): 0.406
relative viability (201T; first compound 0.1 µM): 0.453
relative viability (201T; first compound 0.3162 µM): 0.495
relative viability (201T; first compound 1 µM): 0.442
relative viability (LK-2; first compound 0.01 µM): 0.396
relative viability (LK-2; first compound 0.03162 µM): 0.75
relative viability (LK-2; first compound 0.1 µM): 0.384
relative viability (LK-2; first compound 0.3162 µM): 0.45
relative viability (LK-2; first compound 1 µM): 0.31
relative viability (PC-14; first compound 0.01 µM): 0.652
relative viability (PC-14; first compound 0.03162 µM): 0.611
relative viability (PC-14; first compound 0.1 µM): 0.459
relative viability (PC-14; first compound 0.3162 µM): 0.305
relative viability (PC-14; first compound 1 µM): 0.213
relative viability (NCI-H838; first compound 0.01 µM): 0.538
relative viability (NCI-H838; first compound 0.03162 µM): 0.566
relative viability (NCI-H838; first compound 0.1 µM): 0.669
relative viability (NCI-H838; first compound 0.3162 µM): 0.524
relative viability (NCI-H838; first compound 1 µM): 0.164
relative viability (HCC-44; first compound 0.01 µM): 0.154
relative viability (HCC-44; first compound 0.03162 µM): 0.265
relative viability (HCC-44; first compound 0.1 µM): 0.16
relative viability (HCC-44; first compound 0.3162 µM): 0.185
relative viability (HCC-44; first compound 1 µM): 0.121
relative viability (NCI-H2347; first compound 0.01 µM): 0.426
relative viability (NCI-H2347; first compound 0.03162 µM): 0.365
relative viability (NCI-H2347; first compound 0.1 µM): 0.51
relative viability (NCI-H2347; first compound 0.3162 µM): 0.483
relative viability (NCI-H2347; first compound 1 µM): 0.371
relative viability (COR-L23; first compound 0.01 µM): 0.458
relative viability (COR-L23; first compound 0.03162 µM): 0.446
relative viability (COR-L23; first compound 0.1 µM): 0.515
relative viability (COR-L23; first compound 0.3162 µM): 0.349
relative viability (COR-L23; first compound 1 µM): 0.131
relative viability (NCI-H1944; first compound 0.01 µM): 0.196
relative viability (NCI-H1944; first compound 0.03162 µM): 0.23
relative viability (NCI-H1944; first compound 0.1 µM): 0.231
relative viability (NCI-H1944; first compound 0.3162 µM): 0.273
relative viability (NCI-H1944; first compound 1 µM): 0.21
relative viability (NCI-H460; first compound 0.01 µM): 0.542
relative viability (NCI-H460; first compound 0.03162 µM): 0.468
relative viability (NCI-H460; first compound 0.1 µM): 0.467
relative viability (NCI-H460; first compound 0.3162 µM): 0.253
relative viability (NCI-H460; first compound 1 µM): 0.0452
relative viability (NCI-H650; first compound 0.01 µM): 0.453
relative viability (NCI-H650; first compound 0.03162 µM): 0.46
relative viability (NCI-H650; first compound 0.1 µM): 0.49
relative viability (NCI-H650; first compound 0.3162 µM): 0.446
relative viability (NCI-H650; first compound 1 µM): 0.538
relative viability (SW 900; first compound 0.01 µM): 0.777
relative viability (SW 900; first compound 0.03162 µM): 0.746
relative viability (SW 900; first compound 0.1 µM): 0.65
relative viability (SW 900; first compound 0.3162 µM): 0.579
relative viability (SW 900; first compound 1 µM): 0.29
relative viability (LCLC-97TM1; first compound 0.01 µM): 0.429
relative viability (LCLC-97TM1; first compound 0.03162 µM): 0.434
relative viability (LCLC-97TM1; first compound 0.1 µM): 0.479
relative viability (LCLC-97TM1; first compound 0.3162 µM): 0.406
relative viability (LCLC-97TM1; first compound 1 µM): 0.433
relative viability (NCI-H1563; first compound 0.01 µM): 0.645
relative viability (NCI-H1563; first compound 0.03162 µM): 0.691
relative viability (NCI-H1563; first compound 0.1 µM): 0.687
relative viability (NCI-H1563; first compound 0.3162 µM): 0.612
relative viability (NCI-H1563; first compound 1 µM): 0.694
